Drawing on ChEMBL document CHEMBL3879915, “Methods of inhibiting PRMT5” (2014), this text covers IC50 for 71 compounds.

The experiment deals with PRMT5/MEP50 complex (Homo sapiens, UniProt O14744). Description: Inhibition of recombinant human fetal brain FLAG-tagged PRMT5/full length human testis 6His-tagged MEP50 expressed in baculovirus infected insect Sf9 cells using human histone H4 (1 to 15 residues) as substrate preincubated for 30 mins followed by [3H]-SAM addition.
Sequence of PRMT5/MEP50 complex (O14744 whole entry, the tested form may be a part): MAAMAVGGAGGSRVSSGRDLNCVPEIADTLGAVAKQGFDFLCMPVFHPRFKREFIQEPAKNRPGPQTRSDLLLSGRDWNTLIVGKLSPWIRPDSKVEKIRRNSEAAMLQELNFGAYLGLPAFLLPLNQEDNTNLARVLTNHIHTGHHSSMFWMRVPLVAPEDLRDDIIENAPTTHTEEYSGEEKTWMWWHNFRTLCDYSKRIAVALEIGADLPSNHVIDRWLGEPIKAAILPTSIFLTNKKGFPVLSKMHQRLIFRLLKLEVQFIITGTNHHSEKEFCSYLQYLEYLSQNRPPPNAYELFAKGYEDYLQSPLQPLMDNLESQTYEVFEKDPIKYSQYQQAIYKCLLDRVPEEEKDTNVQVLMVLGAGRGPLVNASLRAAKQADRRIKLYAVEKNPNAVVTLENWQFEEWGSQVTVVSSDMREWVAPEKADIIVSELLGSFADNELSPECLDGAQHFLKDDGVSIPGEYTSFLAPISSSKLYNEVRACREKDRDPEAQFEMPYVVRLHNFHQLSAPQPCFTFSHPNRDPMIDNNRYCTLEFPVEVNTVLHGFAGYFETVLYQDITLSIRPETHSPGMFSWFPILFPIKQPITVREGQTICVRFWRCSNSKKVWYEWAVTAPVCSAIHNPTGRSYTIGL
Sequence of PRMT5/MEP50 complex (Q9BQA1 whole entry, further chain, the tested form may be a part): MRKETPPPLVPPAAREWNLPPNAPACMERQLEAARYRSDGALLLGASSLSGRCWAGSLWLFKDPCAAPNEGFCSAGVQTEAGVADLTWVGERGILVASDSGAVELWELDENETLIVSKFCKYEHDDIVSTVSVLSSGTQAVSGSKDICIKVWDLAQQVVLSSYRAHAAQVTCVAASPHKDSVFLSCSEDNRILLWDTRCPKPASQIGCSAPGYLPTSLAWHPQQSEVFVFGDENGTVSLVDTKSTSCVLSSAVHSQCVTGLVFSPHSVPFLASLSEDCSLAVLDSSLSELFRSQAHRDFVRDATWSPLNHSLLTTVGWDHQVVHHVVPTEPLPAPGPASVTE

In the case of `O=C1CN(Cc2ccccn2)CCN1CC(O)CN1CCc2ccccc2C1` (stereo unspecified), the IC50 lay in the range of 1000 to 10000 nM. Take `COc1ccc(Cn2ccc(-c3ccc(OC[C@H](O)CN4CCc5ccccc5C4)cc3)n2)cc1`: the IC50 was in the range of 1000 to 10000 nM. Under `O=C(NCC(O)CN1CCc2ccccc2C1)c1cc(NC2CCOCC2)ccn1` (stereo unspecified) stands less than 100 nM.

Regarding `CC(=O)N1CCN(CC(O)CN2CCc3ccccc3C2)C(=O)C1` (stereo unspecified), the IC50 lay in the range of 1000 to 10000 nM. With `OC(COc1cccc(-c2ccc(F)cc2)c1)CN1CCc2ccccc2C1` (stereo unspecified), the IC50 lay in the range of 1000 to 10000 nM. Turning to `O=C1CC(c2ccccc2)CCN1C[C@H](O)CN1CCc2ccccc2C1` (stereo partly specified), the IC50 fell in the range of 1000 to 10000 nM.

Take `OC(COc1ccc(Cc2ccccc2)cc1)CN1CCc2ccccc2C1` (stereo unspecified): the IC50 is 101 to 1000 nM. The same measure for `OC(COc1ccc(OCc2ccccc2)cc1)CN1CCc2ccccc2C1` (stereo unspecified): 1000 to 10000 nM; for `OCc1ccc(-c2cccc(OCC(O)CN3CCc4ccccc4C3)c2)cc1` (stereo unspecified): 1000 to 10000 nM; for `O=C1CN(Cc2ccccc2)CCN1CC(O)CN1CCc2ccccc2C1` (stereo unspecified): 1000 to 10000 nM. The same measure for `Oc1ccc(-c2cccc(OCC(O)CN3CCc4ccccc4C3)c2)cc1F` (stereo unspecified): 1000 to 10000 nM; for `O=C(NCC(O)CN1CCc2ccccc2C1)c1cccc(C(=O)N2CCOCC2)c1` (stereo unspecified): 1000 to 10000 nM; for `OC(COc1cccc(CNC2CCCCC2)c1)CN1CCc2ccccc2C1` (stereo unspecified): 101 to 1000 nM. Under `COc1ccc(Cn2ccc(-c3ccc(OC[C@@H](O)CN4CCc5ccccc5C4)cc3)n2)cc1` stands 10000 to 40000 nM; under `OC(COc1cccc(CNC2CCOCC2)c1)CN1CCc2ccccc2C1` (stereo unspecified), 101 to 1000 nM. Consider `OC(COCc1cc(-c2ccc(Cl)cc2)no1)CN1CCc2ccccc2C1` (stereo unspecified), for which the IC50 fell in the range of 101 to 1000 nM. The same measure for `O=C(NCC(O)CN1CCc2ccccc2C1)c1ccc(OC2CCOCC2)cc1` (stereo unspecified): less than 100 nM. Regarding `O=C1CC(c2ccccc2)CCN1C[C@@H](O)CN1CCc2ccccc2C1` (stereo partly specified), the IC50 is 1000 to 10000 nM. The same measure for `O=c1cc(Nc2ccccc2)ccn1C[C@H](O)CN1CCc2ccccc2C1`: 1000 to 10000 nM; for `O=C1COCCN1CC(O)CN1CCc2ccccc2C1` (stereo unspecified): 1000 to 10000 nM.

For the compound `OC(COc1cccc(-c2cccc(Oc3ccccc3)c2)c1)CN1CCc2ccccc2C1` (stereo unspecified), the IC50 is 1000 to 10000 nM.

For `OC(COc1ccccc1C1CCCCC1)CN1CCc2ccccc2C1` (stereo unspecified), the IC50 lay in the range of 1000 to 10000 nM.

Consider `OC(COc1cccc(-c2ccc(Cl)cc2)c1)CN1CCc2ccccc2C1` (stereo unspecified), for which the IC50 is 1000 to 10000 nM.

Take `OC(COc1cccc(CN2CCCCC2)c1)CN1CCc2ccccc2C1` (stereo unspecified): the IC50 was in the range of 1000 to 10000 nM. `OC(COCc1ccc(CN2CCOCC2)cc1)CN1CCc2ccccc2C1` (stereo unspecified): the IC50 was 1000 to 10000 nM. Under `CC1CN(CC(O)COc2cccc(CNC3CCCC3)c2)Cc2ccccc21` (stereo unspecified) stands more than 40000 nM; under `CS(=O)(=O)Nc1ccccc1C(=O)NCC(O)CN1CCc2ccccc2C1` (stereo unspecified), 1000 to 10000 nM; under `OC(CCc1cccc(CNC2CCCC2)c1)CN1CCc2ccccc2C1` (stereo unspecified), 10000 to 40000 nM. Under `OC(COc1cccc(C2=CCCCC2)c1)CN1CCc2ccccc2C1` (stereo unspecified) stands 1000 to 10000 nM. The same measure for `Cn1cnc2ccc(N3CCCC(OCC(O)CN4CCc5ccccc5C4)C3)cc21` (stereo unspecified): 101 to 1000 nM. As for `OC(COC1CCCN(c2ccccc2)C1)CN1CCc2ccccc2C1` (stereo unspecified), the IC50 lay in the range of 1000 to 10000 nM.

As to `COc1cc(NC2CCOCC2)cc(C(=O)NCC(O)CN2CCc3ccccc3C2)c1` (stereo unspecified), the IC50 lay in the range of 101 to 1000 nM. As for `O=C1CN(Cc2cccnc2)CCN1CC(O)CN1CCc2ccccc2C1` (stereo unspecified), the IC50 fell in the range of 1000 to 10000 nM. `OC(COc1ccc(OCC(O)CN2CCc3ccccc3C2)cc1)CN1CCc2ccccc2C1` (stereo unspecified): the IC50 lay in the range of 101 to 1000 nM.

For the compound `O=C(NCC(O)CN1CCc2ccccc2C1)c1cc(NC2CCOCC2)ccc1F` (stereo unspecified), the IC50 is 101 to 1000 nM. `Cc1ccc(-c2cccc(OCC(O)CN3CCc4ccccc4C3)c2)cn1` (stereo unspecified): the IC50 is 1000 to 10000 nM. As to `CC1Cc2ccccc2CN1CC(O)COc1cccc(CNC2CCCC2)c1` (stereo unspecified), the IC50 is more than 40000 nM. Under `COc1ccc(Cn2nccc2-c2ccc(OC[C@H](O)CN3CCc4ccccc4C3)cc2)cc1` stands 1000 to 10000 nM; under `O=C1CN(C2CCOCC2)CCN1CC(O)CN1CCc2ccccc2C1` (stereo unspecified), 1000 to 10000 nM. Under `COc1ccccc1-c1cccc(OCC(O)CN2CCc3ccccc3C2)c1` (stereo unspecified) stands 1000 to 10000 nM; under `CS(=O)(=O)N1CCN(CC(O)CN2CCc3ccccc3C2)C(=O)C1` (stereo unspecified), 1000 to 10000 nM. Under `OC(COc1cccc(CNc2cc[nH]n2)c1)CN1CCc2ccccc2C1` (stereo unspecified) stands 101 to 1000 nM; under `CC(Nc1cccc(C(=O)NCC(O)CN2CCc3ccccc3C2)c1)C1CCOCC1` (stereo unspecified), 101 to 1000 nM. In the case of `OC(COc1ccccc1N1CCNCC1)CN1CCc2ccccc2C1` (stereo unspecified), the IC50 fell in the range of 10000 to 40000 nM.

Turning to `CC1(C)CC(Nc2cccc(C(=O)NCC(O)CN3CCc4ccccc4C3)c2)CCO1` (stereo unspecified), the IC50 lay in the range of 101 to 1000 nM. The same measure for `OC(COc1cccc(CNC2CCNCC2)c1)CN1CCc2ccccc2C1` (stereo unspecified): 1000 to 10000 nM; for `Cc1cccc(N2CCN(CC(O)CN3CCc4ccccc4C3)C(=O)C2)c1` (stereo unspecified): 10000 to 50000 nM.

Take `O=c1cccc(CC(O)CN2CCc3ccccc3C2)[nH]1` (stereo unspecified): the IC50 lay within 10000 to 50000 nM. Regarding `CN1CCN(CC(O)CN2CCc3ccccc3C2)C(=O)C1` (stereo unspecified), the IC50 was more than 50000 nM. The same measure for `OC(COc1ccccc1-c1ccno1)CN1CCc2ccccc2C1` (stereo unspecified): 1000 to 10000 nM; for `OC(COc1ccc(-c2ccn[nH]2)cc1)CN1CCc2ccccc2C1` (stereo unspecified): 1000 to 10000 nM.

Consider `CN(c1cccc(C(=O)NCC(O)CN2CCc3ccccc3C2)c1)C1CCOCC1` (stereo unspecified), for which the IC50 was in the range of 101 to 1000 nM. Under `Cc1cc(OCC(O)CN2CCc3ccccc3C2)c(C)cc1CN1CCOCC1` (stereo unspecified) stands 101 to 1000 nM; under `NS(=O)(=O)c1ccccc1C(=O)NCC(O)CN1CCc2ccccc2C1` (stereo unspecified), 1000 to 10000 nM.

On to `OC(COc1cccc(-c2cccnc2)c1)CN1CCc2ccccc2C1` (stereo unspecified), for which the IC50 was in the range of 1000 to 10000 nM. Under `OC(COc1cccc(C2CCCCC2)c1)CN1CCc2ccccc2C1` (stereo unspecified) stands 1000 to 10000 nM; under `CN(C)S(=O)(=O)c1cccc(-c2cccc(OCC(O)CN3CCc4ccccc4C3)c2)c1` (stereo unspecified), more than 40000 nM; under `OC(COc1cccc2ccc(N3CCOCC3)nc12)CN1CCc2ccccc2C1` (stereo unspecified), 1000 to 10000 nM. The same measure for `OC(COC1CCN(Cc2ccccc2)C1)CN1CCc2ccccc2C1` (stereo unspecified): 1000 to 10000 nM. Under `COc1ccc(Cl)c(-c2cccc(OCC(O)CN3CCc4ccccc4C3)c2)c1` (stereo unspecified) stands 1000 to 10000 nM. With `O=C(NCC(O)CN1CCc2ccccc2C1)c1cccc(NC2COC2)c1` (stereo unspecified), the IC50 was 101 to 1000 nM. As for `O=C(NC[C@H](O)CN1CCc2ccccc2C1)Oc1ccccc1`, the IC50 was in the range of 1000 to 10000 nM.

For the compound `CN(C)c1ccc(N2CCN(C[C@H](O)CN3CCc4ccccc4C3)C(=O)C2)cc1`, the IC50 is 1000 to 10000 nM. Under `COc1cccc2c1CCN(CC(O)COc1cccc(CNC3CCCC3)c1)C2` (stereo unspecified) stands more than 40000 nM. The same measure for `COc1ccc(Cn2nccc2-c2ccc(OC[C@@H](O)CN3CCc4ccccc4C3)cc2)cc1`: more than 40000 nM; for `O=C(NCC(O)CN1CCc2ccccc2C1)c1cccc(CN2CCOCC2)c1` (stereo unspecified): 101 to 1000 nM; for `OC(COc1cccc(OCc2ccccc2)c1)CN1CCc2ccccc2C1` (stereo unspecified): 1000 to 10000 nM. `O=C(NC1CCOCC1)C1CC(=O)N(CC(O)CN2CCc3ccccc3C2)C1` (stereo unspecified): the half-maximal inhibitory concentration (IC50) was more than 10000 nM. Under `Cn1cc(-c2cccc(OCC(O)CN3CCc4ccccc4C3)c2)cn1` (stereo unspecified) stands 1000 to 10000 nM. The same measure for `O=C(NCC(O)CN1CCc2ccccc2C1)c1cncc(NC2CCOCC2)c1` (stereo unspecified): less than 100 nM; for `OC(COc1cccc(-c2cncc(F)c2)c1)CN1CCc2ccccc2C1` (stereo unspecified): 1000 to 10000 nM.
